Results as given in PubChem BioAssay AID2060505 (Molecular Pharmacology Branch, DTP, NCI, 2025).

Test system: 633275-114-R-J1-PDC complex spheroids, viability
Experiment: Anticancer human tumor 633275-114-R-J1-PDC patient-derived endometrial adenocarcinoma cell line growth inhibition [GQUAD]
Settings: for IC50: curve of first compound; for viability, T/C: stronger effect = lower value
How it was run: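 Tumor cells were grown as complex spheroids with HUVEC endothelial cells and mesenchymal stem cells as stroma. G-quadruplex stabilizers were combined with targeted agents over half-log dilutions from near the clinical Cmax, or from 10 microM.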

[1] = second compound 0.0316 µM, first compound 0.0316 µM
[2] = second compound 0.0316 µM, first compound 0.1 µM
[3] = second compound 0.0316 µM, first compound 0.316 µM
[4] = second compound 0.0316 µM, first compound 1 µM
[5] = second compound 0.0316 µM, first compound 3.16 µM
[6] = second compound 0.0316 µM, first compound 10 µM
[7] = second compound 0.1 µM, first compound 0.0316 µM
[8] = second compound 0.1 µM, first compound 0.1 µM
[9] = second compound 0.1 µM, first compound 0.316 µM
[10] = second compound 0.1 µM, first compound 1 µM
[11] = second compound 0.1 µM, first compound 3.16 µM
[12] = second compound 0.1 µM, first compound 10 µM
[13] = second compound 0.316 µM, first compound 0.0316 µM
[14] = second compound 0.316 µM, first compound 0.1 µM
[15] = second compound 0.316 µM, first compound 0.316 µM
[16] = second compound 0.316 µM, first compound 1 µM
[17] = second compound 0.316 µM, first compound 3.16 µM
[18] = second compound 0.316 µM, first compound 10 µM
[19] = second compound 1 µM, first compound 0.0316 µM
[20] = second compound 1 µM, first compound 0.1 µM
[21] = second compound 1 µM, first compound 0.316 µM
[22] = second compound 1 µM, first compound 1 µM
[23] = second compound 1 µM, first compound 3.16 µM
[24] = second compound 1 µM, first compound 10 µM
[25] = second compound 3.16 µM, first compound 0.0316 µM
[26] = second compound 3.16 µM, first compound 0.1 µM
[27] = second compound 3.16 µM, first compound 0.316 µM
[28] = second compound 3.16 µM, first compound 1 µM
[29] = second compound 3.16 µM, first compound 3.16 µM
[30] = second compound 3.16 µM, first compound 10 µM
[31] = second compound 10 µM, first compound 0.0316 µM
[32] = second compound 10 µM, first compound 0.1 µM
[33] = second compound 10 µM, first compound 0.316 µM
[34] = second compound 10 µM, first compound 1 µM
[35] = second compound 10 µM, first compound 3.16 µM
[36] = second compound 10 µM, first compound 10 µM
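Further: spheroids exposed to the agents for seven days.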
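Wherever viability, T/C is given: percent of DMSO vehicle control viability which is 100%.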

COc1cccc2c1C(=O)c1c(O)c3c(c(O)c1C2=O)CC(O)(C(=O)CO)CC3OC1CC(N)C(O)C(C)O1 (stereo unspecified) + Cc1[nH]c2ccc(F)cc2c1-c1nc2c3cccnc3c3ncccc3c2[nH]1
IC50 (second compound 0.0316 µM): 89.7 nM
IC50 (second compound 0.1 µM): 94.6 nM
IC50 (second compound 0.316 µM): 82.3 nM
IC50 (second compound 1 µM): 73 nM
IC50 (second compound 3.16 µM): 45.4 nM
IC50 (second compound 10 µM): 39.7 nM
viability, T/C [1]: 64.4%
viability, T/C [2]: 47.5%
viability, T/C [3]: 32%
viability, T/C [4]: 21.5%
viability, T/C [5]: 2.36%
viability, T/C [6]: 1.69%
viability, T/C [7]: 65.3%
viability, T/C [8]: 46.2%
viability, T/C [9]: 35.3%
viability, T/C [10]: 20.6%
viability, T/C [11]: 1.91%
viability, T/C [12]: 1.66%
viability, T/C [13]: 62.5%
viability, T/C [14]: 46%
viability, T/C [15]: 32.3%
viability, T/C [16]: 20.3%
viability, T/C [17]: 2.16%
viability, T/C [18]: 1.4%
viability, T/C [19]: 62.2%
viability, T/C [20]: 44%
viability, T/C [21]: 30.6%
viability, T/C [22]: 20.6%
viability, T/C [23]: 1.92%
viability, T/C [24]: 1.57%
viability, T/C [25]: 54.4%
viability, T/C [26]: 40.2%
viability, T/C [27]: 30.9%
viability, T/C [28]: 18.6%
viability, T/C [29]: 2.97%
viability, T/C [30]: 1.41%
viability, T/C [31]: 52.9%
viability, T/C [32]: 39.7%
viability, T/C [33]: 30.1%
viability, T/C [34]: 19.4%
viability, T/C [35]: 2.39%
viability, T/C [36]: 1.46%

Nc1ccn(C2OC(CO)C(O)C2(F)F)c(=O)n1 (stereo unspecified) + Cc1[nH]c2ccc(F)cc2c1-c1nc2c3cccnc3c3ncccc3c2[nH]1
IC50 (second compound 0.0316 µM): < 31.6 nM
IC50 (second compound 0.1 µM): < 31.6 nM
IC50 (second compound 0.316 µM): < 31.6 nM
IC50 (second compound 1 µM): < 31.6 nM
IC50 (second compound 3.16 µM): < 31.6 nM
IC50 (second compound 10 µM): < 31.6 nM
viability, T/C [1]: 29.7%
viability, T/C [2]: 25.6%
viability, T/C [3]: 25.9%
viability, T/C [4]: 26.4%
viability, T/C [5]: 22.9%
viability, T/C [6]: 24.4%
viability, T/C [7]: 33.2%
viability, T/C [8]: 24.3%
viability, T/C [9]: 26.4%
viability, T/C [10]: 27.3%
viability, T/C [11]: 24.8%
viability, T/C [12]: 20.9%
viability, T/C [13]: 31.2%
viability, T/C [14]: 28.8%
viability, T/C [15]: 26.1%
viability, T/C [16]: 24.2%
viability, T/C [17]: 27.1%
viability, T/C [18]: 19.9%
viability, T/C [19]: 30.9%
viability, T/C [20]: 25.6%
viability, T/C [21]: 26%
viability, T/C [22]: 25.9%
viability, T/C [23]: 24%
viability, T/C [24]: 20.1%
viability, T/C [25]: 26.1%
viability, T/C [26]: 24.4%
viability, T/C [27]: 22.6%
viability, T/C [28]: 23.4%
viability, T/C [29]: 25.7%
viability, T/C [30]: 17.9%
viability, T/C [31]: 26.8%
viability, T/C [32]: 24.5%
viability, T/C [33]: 23.8%
viability, T/C [34]: 24.1%
viability, T/C [35]: 22.5%
viability, T/C [36]: 18.8%

O=c1[nH]cc(F)c(=O)[nH]1 + Cc1[nH]c2ccc(F)cc2c1-c1nc2c3cccnc3c3ncccc3c2[nH]1
IC50 (second compound 0.0316 µM): > 10000 nM
IC50 (second compound 0.1 µM): > 10000 nM
IC50 (second compound 0.316 µM): > 10000 nM
IC50 (second compound 1 µM): > 10000 nM
IC50 (second compound 3.16 µM): > 10000 nM
IC50 (second compound 10 µM): > 10000 nM
viability, T/C [1]: 97.7%
viability, T/C [2]: 107%
viability, T/C [3]: 107%
viability, T/C [4]: 95.4%
viability, T/C [5]: 86%
viability, T/C [6]: 71.8%
viability, T/C [7]: 108%
viability, T/C [8]: 89.7%
viability, T/C [9]: 96.4%
viability, T/C [10]: 98.8%
viability, T/C [11]: 91.4%
viability, T/C [12]: 70.6%
viability, T/C [13]: 95.2%
viability, T/C [14]: 95.6%
viability, T/C [15]: 94%
viability, T/C [16]: 90.6%
viability, T/C [17]: 93.4%
viability, T/C [18]: 71.4%
viability, T/C [19]: 91.3%
viability, T/C [20]: 101%
viability, T/C [21]: 90.6%
viability, T/C [22]: 88.4%
viability, T/C [23]: 84.5%
viability, T/C [24]: 73.3%
viability, T/C [25]: 77.1%
viability, T/C [26]: 71.7%
viability, T/C [27]: 75.5%
viability, T/C [28]: 73.2%
viability, T/C [29]: 71.2%
viability, T/C [30]: 56.9%
viability, T/C [31]: 70.5%
viability, T/C [32]: 73%
viability, T/C [33]: 71.9%
viability, T/C [34]: 73%
viability, T/C [35]: 71.8%
viability, T/C [36]: 55.9%
